Our source for the solubility (mole fraction) values is BigSolDB 2.1.

Structures are written as SMILES.

For orientation: solubility (mole fraction) means the moles of solute divided by all moles in the saturated solution. With `N[C@@H](Cc1c[nH]c2ccccc12)C(=O)O`, the solubility (mole fraction) is, setting by setting: (in ethanol, 288.15 K) 0.000142; (in ethanol, 293.15 K) 0.000178; (in ethanol, 298.15 K) 0.000209; (in ethanol, 303.15 K) 0.000246; (in ethanol, 308.15 K) 0.000284; (in water, 288.15 K) 0.00116. In addition, the solubility (mole fraction) runs as follows: (in water, 293.15 K) 0.00119; (in water, 298.15 K) 0.00122; (in water, 303.15 K) 0.00125; (in water, 308.15 K) 0.00128.

`N[C@@H](Cc1cnc[nH]1)C(=O)O` returned a solubility (mole fraction) (in ethanol, 288.15 K) of 1.6e-05; a solubility (mole fraction) (in ethanol, 293.15 K) of 2e-05; a solubility (mole fraction) (in ethanol, 298.15 K) of 2.8e-05; a solubility (mole fraction) (in ethanol, 303.15 K) of 3.1e-05; a solubility (mole fraction) (in ethanol, 308.15 K) of 3.9e-05; a solubility (mole fraction) (in water, 288.15 K) of 0.00379. Also, the solubility (mole fraction) is, setting by setting: (in water, 293.15 K) 0.00418; (in water, 298.15 K) 0.0046; (in water, 303.15 K) 0.00515; (in water, 308.15 K) 0.0057.
